Experimental data published in PubChem BioAssay AID1963451 (Molecular Pharmacology Branch, DTP, NCI, 2024).

Tested on: 521955-158-R6-J3-PDC complex spheroid growth, % test/control
Test: Anticancer human tumor 521955-158-R6-J3-PDC patient-derived pancreatic carcinoma cell line growth inhibition [Asc]
Settings: for IC50: curve of first compound; for viability, T/C: stronger effect = lower value
Summary of the method: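 Complex solid-tumor spheroids incorporating human endothelial and mesenchymal stem cells received single agents or combinations over half-log dilution ranges anchored to clinical Cmax.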
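Also: spheroids exposed to compounds for 7 days.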
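For viability, T/C in this document: 100% = DMSO vehicle control wells.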

In the case of C=C(F)C(=O)N1CCN(c2nc(OCC3CCCN3C)nc3c2CCN(c2cccc4cccc(Cl)c24)C3)CC1CC#N (stereo unspecified) + CCN1C(C(=O)NC23CCC(C(=O)O)(CC2)CC3)C(c2cccc(Cl)c2F)C2(C(=O)Nc3cc(Cl)ccc32)C12CCCCC2, the IC50 (second compound 0.00949 µM) is reported as 4.82 µM, the IC50 (second compound 0.03 µM) is reported as 5.19 µM and the IC50 (second compound 0.0949 µM) is reported as 4.75 µM. For the same compound, the IC50 (second compound 0.3 µM) was 5.35 µM, the IC50 (second compound 0.949 µM) was 5.09 µM and the IC50 (second compound 3 µM) was 5.58 µM. The viability, T/C (second compound 0.00949 µM, first compound 0.0316 µM) was 107%, the viability, T/C (second compound 0.00949 µM, first compound 0.1 µM) was 98.7% and the viability, T/C (second compound 0.00949 µM, first compound 0.316 µM) was 102%. For the same compound, the viability, T/C (second compound 0.00949 µM, first compound 1 µM) was 95.6%, the viability, T/C (second compound 0.00949 µM, first compound 3.16 µM) was 79.4% and the viability, T/C (second compound 0.00949 µM, first compound 10 µM) was 0.48%. It also gave a viability, T/C (second compound 0.03 µM, first compound 0.0316 µM) of 117%, a viability, T/C (second compound 0.03 µM, first compound 0.1 µM) of 108% and a viability, T/C (second compound 0.03 µM, first compound 0.316 µM) of 111%. The viability, T/C (second compound 0.03 µM, first compound 1 µM) was 91.7%, the viability, T/C (second compound 0.03 µM, first compound 3.16 µM) was 90.2% and the viability, T/C (second compound 0.03 µM, first compound 10 µM) was 2.78%. For the same compound, the viability, T/C (second compound 0.0949 µM, first compound 0.0316 µM) was 113%, the viability, T/C (second compound 0.0949 µM, first compound 0.1 µM) was 121% and the viability, T/C (second compound 0.0949 µM, first compound 0.316 µM) was 108%. For the same compound, the viability, T/C (second compound 0.0949 µM, first compound 1 µM) was 94%, the viability, T/C (second compound 0.0949 µM, first compound 3.16 µM) was 81.8% and the viability, T/C (second compound 0.0949 µM, first compound 10 µM) was 0.48%. For the same compound, the viability, T/C (second compound 0.3 µM, first compound 0.0316 µM) was 109%, the viability, T/C (second compound 0.3 µM, first compound 0.1 µM) was 97.7% and the viability, T/C (second compound 0.3 µM, first compound 0.316 µM) was 96%. The viability, T/C (second compound 0.3 µM, first compound 1 µM) was 92.4%, the viability, T/C (second compound 0.3 µM, first compound 3.16 µM) was 91.6% and the viability, T/C (second compound 0.3 µM, first compound 10 µM) was 0.41%. The viability, T/C (second compound 0.949 µM, first compound 0.0316 µM) was 103%, the viability, T/C (second compound 0.949 µM, first compound 0.1 µM) was 110% and the viability, T/C (second compound 0.949 µM, first compound 0.316 µM) was 103%. It also gave a viability, T/C (second compound 0.949 µM, first compound 1 µM) of 113%, a viability, T/C (second compound 0.949 µM, first compound 3.16 µM) of 84.9% and a viability, T/C (second compound 0.949 µM, first compound 10 µM) of 0.49%. For the same compound, the viability, T/C (second compound 3 µM, first compound 0.0316 µM) was 94%, the viability, T/C (second compound 3 µM, first compound 0.1 µM) was 109% and the viability, T/C (second compound 3 µM, first compound 0.316 µM) was 102%. The viability, T/C (second compound 3 µM, first compound 1 µM) was 86.2%, the viability, T/C (second compound 3 µM, first compound 3.16 µM) was 101% and the viability, T/C (second compound 3 µM, first compound 10 µM) was 0.33%.

C#Cc1c(F)ccc2cc(O)cc(-c3ncc4c(N5CC6CCC(C5)N6)nc(OCC56CCCN5CC(F)C6)nc4c3F)c12 (stereo unspecified) + Cc1c(S(C)(=O)=O)c(-c2cc(F)cc(N3CCN(c4ccc(NS(=O)(=O)c5ccc(NC(CCN6CCC(C(=O)OCCCP(=O)(O)O)CC6)CSc6ccccc6)c(S(=O)(=O)C(F)(F)F)c5)cc4)CC3)c2)c(-c2ccc(Cl)cc2)n1C(C)C gave an IC50 (second compound 0.0316 µM) of less than 0.0316 µM, an IC50 (second compound 0.1 µM) of less than 0.0316 µM and an IC50 (second compound 0.316 µM) of less than 0.0316 µM. It also gave an IC50 (second compound 1 µM) of less than 0.0316 µM, an IC50 (second compound 3.16 µM) of less than 0.0316 µM and an IC50 (second compound 10 µM) of less than 0.0316 µM. The viability, T/C (second compound 0.0316 µM, first compound 0.0316 µM) was 49.8%, the viability, T/C (second compound 0.0316 µM, first compound 0.1 µM) was 44.9% and the viability, T/C (second compound 0.0316 µM, first compound 0.316 µM) was 23.1%. For the same compound, the viability, T/C (second compound 0.0316 µM, first compound 1 µM) was 24%, the viability, T/C (second compound 0.0316 µM, first compound 3.16 µM) was 18.4% and the viability, T/C (second compound 0.0316 µM, first compound 10 µM) was 15.9%. For the same compound, the viability, T/C (second compound 0.1 µM, first compound 0.0316 µM) was 46.2%, the viability, T/C (second compound 0.1 µM, first compound 0.1 µM) was 31.1% and the viability, T/C (second compound 0.1 µM, first compound 0.316 µM) was 23.3%. It also gave a viability, T/C (second compound 0.1 µM, first compound 1 µM) of 18.4%, a viability, T/C (second compound 0.1 µM, first compound 3.16 µM) of 17.8% and a viability, T/C (second compound 0.1 µM, first compound 10 µM) of 17.1%. The viability, T/C (second compound 0.316 µM, first compound 0.0316 µM) was 31.6%, the viability, T/C (second compound 0.316 µM, first compound 0.1 µM) was 34.9% and the viability, T/C (second compound 0.316 µM, first compound 0.316 µM) was 15.9%. The viability, T/C (second compound 0.316 µM, first compound 1 µM) was 15.6%, the viability, T/C (second compound 0.316 µM, first compound 3.16 µM) was 11.6% and the viability, T/C (second compound 0.316 µM, first compound 10 µM) was 9.78%. The viability, T/C (second compound 1 µM, first compound 0.0316 µM) was 16.1%, the viability, T/C (second compound 1 µM, first compound 0.1 µM) was 15.3% and the viability, T/C (second compound 1 µM, first compound 0.316 µM) was 11.9%. It also gave a viability, T/C (second compound 1 µM, first compound 1 µM) of 9.24%, a viability, T/C (second compound 1 µM, first compound 3.16 µM) of 7.76% and a viability, T/C (second compound 1 µM, first compound 10 µM) of 7.16%. It also gave a viability, T/C (second compound 3.16 µM, first compound 0.0316 µM) of 12.6%, a viability, T/C (second compound 3.16 µM, first compound 0.1 µM) of 11.4% and a viability, T/C (second compound 3.16 µM, first compound 0.316 µM) of 7.77%. For the same compound, the viability, T/C (second compound 3.16 µM, first compound 1 µM) was 7.76%, the viability, T/C (second compound 3.16 µM, first compound 3.16 µM) was 6.82% and the viability, T/C (second compound 3.16 µM, first compound 10 µM) was 3.79%. For the same compound, the viability, T/C (second compound 10 µM, first compound 0.0316 µM) was 8.21%, the viability, T/C (second compound 10 µM, first compound 0.1 µM) was 6.93% and the viability, T/C (second compound 10 µM, first compound 0.316 µM) was 5%. The viability, T/C (second compound 10 µM, first compound 1 µM) was 5.16%, the viability, T/C (second compound 10 µM, first compound 3.16 µM) was 3.49% and the viability, T/C (second compound 10 µM, first compound 10 µM) was 3.88%.

In the case of CCN1C(C(=O)NC23CCC(C(=O)O)(CC2)CC3)C(c2cccc(Cl)c2F)C2(C(=O)Nc3cc(Cl)ccc32)C12CCCCC2 (stereo unspecified) + Cc1c(S(C)(=O)=O)c(-c2cc(F)cc(N3CCN(c4ccc(NS(=O)(=O)c5ccc(NC(CCN6CCC(C(=O)OCCCP(=O)(O)O)CC6)CSc6ccccc6)c(S(=O)(=O)C(F)(F)F)c5)cc4)CC3)c2)c(-c2ccc(Cl)cc2)n1C(C)C, the IC50 (second compound 0.0316 µM) is reported as greater than 3 µM, the IC50 (second compound 0.1 µM) is reported as greater than 3 µM and the IC50 (second compound 0.316 µM) is reported as less than 0.00949 µM. It also gave an IC50 (second compound 1 µM) of less than 0.00949 µM, an IC50 (second compound 3.16 µM) of less than 0.00949 µM and an IC50 (second compound 10 µM) of less than 0.00949 µM. It also gave a viability, T/C (second compound 0.0316 µM, first compound 0.00949 µM) of 102%, a viability, T/C (second compound 0.0316 µM, first compound 0.03 µM) of 78.8% and a viability, T/C (second compound 0.0316 µM, first compound 0.0949 µM) of 72.6%. It also gave a viability, T/C (second compound 0.0316 µM, first compound 0.3 µM) of 70.7%, a viability, T/C (second compound 0.0316 µM, first compound 0.949 µM) of 84.2% and a viability, T/C (second compound 0.0316 µM, first compound 3 µM) of 73.2%. It also gave a viability, T/C (second compound 0.1 µM, first compound 0.00949 µM) of 77.7%, a viability, T/C (second compound 0.1 µM, first compound 0.03 µM) of 75.7% and a viability, T/C (second compound 0.1 µM, first compound 0.0949 µM) of 67.4%. It also gave a viability, T/C (second compound 0.1 µM, first compound 0.3 µM) of 66.5%, a viability, T/C (second compound 0.1 µM, first compound 0.949 µM) of 69.4% and a viability, T/C (second compound 0.1 µM, first compound 3 µM) of 50.8%. The viability, T/C (second compound 0.316 µM, first compound 0.00949 µM) was 49.2%, the viability, T/C (second compound 0.316 µM, first compound 0.03 µM) was 51.8% and the viability, T/C (second compound 0.316 µM, first compound 0.0949 µM) was 44%. For the same compound, the viability, T/C (second compound 0.316 µM, first compound 0.3 µM) was 45.4%, the viability, T/C (second compound 0.316 µM, first compound 0.949 µM) was 41.2% and the viability, T/C (second compound 0.316 µM, first compound 3 µM) was 31.7%. It also gave a viability, T/C (second compound 1 µM, first compound 0.00949 µM) of 41.2%, a viability, T/C (second compound 1 µM, first compound 0.03 µM) of 25.7% and a viability, T/C (second compound 1 µM, first compound 0.0949 µM) of 39.5%. It also gave a viability, T/C (second compound 1 µM, first compound 0.3 µM) of 35%, a viability, T/C (second compound 1 µM, first compound 0.949 µM) of 30.6% and a viability, T/C (second compound 1 µM, first compound 3 µM) of 25.2%. The viability, T/C (second compound 3.16 µM, first compound 0.00949 µM) was 19.7%, the viability, T/C (second compound 3.16 µM, first compound 0.03 µM) was 17.3% and the viability, T/C (second compound 3.16 µM, first compound 0.0949 µM) was 17.5%. It also gave a viability, T/C (second compound 3.16 µM, first compound 0.3 µM) of 14.9%, a viability, T/C (second compound 3.16 µM, first compound 0.949 µM) of 13.9% and a viability, T/C (second compound 3.16 µM, first compound 3 µM) of 9.12%. The viability, T/C (second compound 10 µM, first compound 0.00949 µM) was 14.6%, the viability, T/C (second compound 10 µM, first compound 0.03 µM) was 11.3% and the viability, T/C (second compound 10 µM, first compound 0.0949 µM) was 15.8%. The viability, T/C (second compound 10 µM, first compound 0.3 µM) was 9.21%, the viability, T/C (second compound 10 µM, first compound 0.949 µM) was 18.1% and the viability, T/C (second compound 10 µM, first compound 3 µM) was 1.44%.
